Among the test systems are CAKI-1 renal; KM12 colon; MCF7 breast; U251 CNS; UACC-62 melanoma; SN12C renal; HOP-62 NSCLC; HCC-2998 colon; A549 NSCLC; HOP-92 NSCLC.
Experiment in all cases: NCI-60 cell line screen, 48 h

Experimental findings from PubChem BioAssay (NCI) are described below.

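48-hour exposure; five concentrations; linearly interpolated endpoints. GI50 = concentration required for 50% inhibition of growth. At the TGI there is no net growth.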 Some results are limits rather than exact numbers.

For `CCOC(=O)c1nc2ccccc2nc1Nc1ccc(C(=O)OC)s1`, the TGI with CAKI-1 renal, in the experiment on KM12 colon, in the experiment on MCF7 breast, in the experiment on U251 CNS, with UACC-62 melanoma and in the experiment on SN12C renal was over 100 µM throughout. The TGI in the experiment with HOP-62 NSCLC, in the experiment on HCC-2998 colon, in the experiment with A549 NSCLC and with HOP-92 NSCLC was over 100 µM throughout.
Turning to `Cc1ccc2sc3c(NCCCN)nc4ccccc4c3c(=O)c2c1`, the GI50 was 1.67 µM with CAKI-1 renal; 1.9 µM in the experiment on KM12 colon; 1.77 µM with MCF7 breast; 1.74 µM with UACC-62 melanoma; 1.68 µM with SN12C renal; 1.74 µM in the experiment on HCC-2998 colon. Also, the GI50 in the experiment with HOP-92 NSCLC is 1.44 µM. Also, the TGI came to 3.25 µM in the experiment with CAKI-1 renal; 3.51 µM with KM12 colon; 3.36 µM in the experiment with MCF7 breast; 3.24 µM in the experiment with UACC-62 melanoma; 3.13 µM in the experiment on SN12C renal; 3.25 µM with HCC-2998 colon. Besides, the TGI in the experiment with HOP-92 NSCLC was found to be 4.65 µM.
In the case of `CC1(C)C2CC3C(C)(C2)C31c1cc(Cl)ccc1N` (configuration not stated), the TGI in the experiment with CAKI-1 renal worked out at 29.1 µM; in the experiment with KM12 colon, 28.5 µM; with MCF7 breast, 26.7 µM; in the experiment with U251 CNS, 28.5 µM; with UACC-62 melanoma it was 29.1 µM; in the experiment on SN12C renal, 27.5 µM. Also, the TGI in the experiment with HOP-62 NSCLC came out at 29.4 µM; with HCC-2998 colon, 28.2 µM; in the experiment with A549 NSCLC it was 24.2 µM; in the experiment with HOP-92 NSCLC, 28.6 µM.
For `COc1cc2nc(-c3cccs3)nc(Nc3ccccc3C(=O)NN)c2cc1OC`, the TGI in the experiment with CAKI-1 renal, in the experiment on KM12 colon, in the experiment on MCF7 breast, with U251 CNS, in the experiment on UACC-62 melanoma and in the experiment with SN12C renal was over 100 µM throughout. Moreover, the TGI in the experiment with HOP-62 NSCLC, in the experiment with HCC-2998 colon, with A549 NSCLC and in the experiment on HOP-92 NSCLC was over 100 µM in each case.
With `N=C1C=CC(=C(c2ccc(N)cc2)c2ccc(N)cc2)C=C1`, the TGI with CAKI-1 renal came out at 58.1 µM; in the experiment with KM12 colon, 13.7 µM; in the experiment with MCF7 breast it was 13.2 µM; in the experiment on U251 CNS, 22.6 µM; in the experiment on UACC-62 melanoma, 15.3 µM; in the experiment on SN12C renal, 7.37 µM. Also, the TGI with HOP-62 NSCLC is 16.8 µM; with HCC-2998 colon it was 18.6 µM; in the experiment on A549 NSCLC, 32.1 µM; in the experiment with HOP-92 NSCLC, 12.7 µM.
As to `CC1(C)CC(=O)c2c(N)n[nH]c2C1`, the TGI in the experiment on CAKI-1 renal, in the experiment with KM12 colon, in the experiment with MCF7 breast, in the experiment on U251 CNS, with UACC-62 melanoma and with SN12C renal was over 100 µM in each case. For the same molecule, the TGI with HOP-62 NSCLC, in the experiment with HCC-2998 colon, in the experiment with A549 NSCLC and with HOP-92 NSCLC was over 100 µM in each case.
As to `O=C(CC(=O)N1N=C(c2ccccc2)C(N=Nc2ccc(S(=O)(=O)CCOS(=O)(=O)O)cc2)C1=O)Nc1ccc(Cl)cc1` (configuration not stated), the TGI with CAKI-1 renal, in the experiment with KM12 colon, in the experiment on MCF7 breast, with U251 CNS, in the experiment with UACC-62 melanoma and in the experiment with SN12C renal was over 100 µM throughout. In addition, the TGI in the experiment with HOP-62 NSCLC, in the experiment with HCC-2998 colon, in the experiment with A549 NSCLC and in the experiment on HOP-92 NSCLC was over 100 µM throughout.
Consider `O/N=C1\C/C(=N\O)c2c(Br)sc(Br)c21`, for which the TGI is 60 µM in the experiment with CAKI-1 renal; over 100 µM in the experiment with KM12 colon; over 100 µM with MCF7 breast; over 100 µM in the experiment with U251 CNS; over 100 µM with UACC-62 melanoma; over 100 µM in the experiment with SN12C renal. Further, the TGI is over 100 µM with HOP-62 NSCLC, 50.2 µM with HCC-2998 colon, over 100 µM with A549 NSCLC and over 100 µM with HOP-92 NSCLC.
On to `Cc1ccc(/C=c2\c(=O)[nH]c3nc4ccccc4c(=O)n23)cc1`, for which the TGI is over 100 µM with CAKI-1 renal; over 100 µM with KM12 colon; over 100 µM with MCF7 breast; 38 µM in the experiment on U251 CNS; over 100 µM in the experiment on UACC-62 melanoma; over 100 µM in the experiment with SN12C renal. The TGI with HOP-62 NSCLC is over 100 µM; with HCC-2998 colon, 62.6 µM; with A549 NSCLC it was over 100 µM; with HOP-92 NSCLC, over 100 µM.
Regarding `c1ccc2c(c1)nnn2C1CCCCO1` (configuration not stated), the TGI in the experiment with CAKI-1 renal, with KM12 colon, in the experiment on MCF7 breast, in the experiment with U251 CNS, in the experiment on UACC-62 melanoma and in the experiment with SN12C renal was over 100 µM in each case. Further, the TGI in the experiment on HOP-62 NSCLC, in the experiment with HCC-2998 colon, with A549 NSCLC and in the experiment with HOP-92 NSCLC was over 100 µM each time.
On to `CCOC(=O)c1ccc2nc3n(c2c1)C(c1c(F)cccc1F)SC3` (configuration not stated), for which the TGI in the experiment on CAKI-1 renal, with KM12 colon, with MCF7 breast, in the experiment with U251 CNS, in the experiment with UACC-62 melanoma and in the experiment on SN12C renal was over 100 µM throughout. The TGI in the experiment with HOP-62 NSCLC, in the experiment on HCC-2998 colon, in the experiment with A549 NSCLC and in the experiment with HOP-92 NSCLC was over 100 µM throughout.
Regarding `CCCCCCc1ccc(CCCCCCCC(=O)O)o1`, the TGI with CAKI-1 renal, with KM12 colon, in the experiment on MCF7 breast, in the experiment with SN12C renal, in the experiment on HOP-62 NSCLC and with HCC-2998 colon was over 100 µM in each case. Further, the TGI with A549 NSCLC and in the experiment with HOP-92 NSCLC was over 100 µM in each case.
